The text below walks through data of ChEMBL document CHEMBL1132134, “The LMC delta opioid recognition pharmacophore: comparison of SNC80 and oxymorphindole” (Bioorg Med Chem Lett, 1999).

Experiment [1] addresses Opioid receptors; mu & delta (Rattus norvegicus) (UniProt P33533+P33535). In words: Selectivity ratio against mu opioid receptor to that of delta opioid receptor. The format is protein assay.
The target of experiment [2] is Delta-type opioid receptor (Rattus norvegicus, UniProt P33533). In words: Binding affinity evaluated by inhibition of binding of [3H]DADLE to delta opioid receptor of rat brain.
Sequence of Delta-type opioid receptor (P33533 whole entry): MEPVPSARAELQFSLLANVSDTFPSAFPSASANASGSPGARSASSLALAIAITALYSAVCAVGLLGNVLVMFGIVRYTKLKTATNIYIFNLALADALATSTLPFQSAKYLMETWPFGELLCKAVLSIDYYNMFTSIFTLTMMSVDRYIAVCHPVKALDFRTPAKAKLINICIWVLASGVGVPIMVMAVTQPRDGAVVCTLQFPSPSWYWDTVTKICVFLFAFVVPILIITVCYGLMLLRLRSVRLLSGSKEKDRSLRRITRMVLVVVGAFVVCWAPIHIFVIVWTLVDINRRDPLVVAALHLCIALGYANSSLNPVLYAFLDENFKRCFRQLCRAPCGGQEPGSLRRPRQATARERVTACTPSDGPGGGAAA

Molecules are shown by their SMILES.

Sequence of Opioid receptors; mu & delta (Rattus norvegicus) (P33533 whole entry, looked up): as the sequence (P33533 whole entry) above
Sequence of Opioid receptors; mu & delta (Rattus norvegicus) (P33535 whole entry, looked up): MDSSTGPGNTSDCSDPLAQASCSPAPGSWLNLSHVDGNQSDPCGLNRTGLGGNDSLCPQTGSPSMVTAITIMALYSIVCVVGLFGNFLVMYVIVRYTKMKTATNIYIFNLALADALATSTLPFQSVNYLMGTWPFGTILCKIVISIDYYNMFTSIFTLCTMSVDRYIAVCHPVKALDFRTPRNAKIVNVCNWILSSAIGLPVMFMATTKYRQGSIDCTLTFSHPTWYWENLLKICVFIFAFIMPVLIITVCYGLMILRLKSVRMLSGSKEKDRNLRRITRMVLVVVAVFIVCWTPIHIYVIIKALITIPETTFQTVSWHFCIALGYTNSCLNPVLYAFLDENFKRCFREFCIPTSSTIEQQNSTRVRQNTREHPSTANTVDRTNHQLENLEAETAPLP

Usually Ki stands for a dissociation constant, usually derived from enzyme kinetics or from competition with a known ligand. Higher therefore signals weaker binding. Consider `O=C1/C(=C\c2c3ccccc3cc3ccccc23)C[C@@]2(O)C3Cc4ccc(O)c5c4C2(CCN3CC2CC2)C1O5` (stereo not given in full), for which the Selectivity in experiment [1] was determined as 14. In experiment [2], the affinity, expressed as Ki, was 2.4 nM.

With `O=C1/C(=C/c2c3ccccc3cc3ccccc23)C[C@@]2(O)C3Cc4ccc(O)c5c4C2(CCN3CC2CC2)C1O5` (stereo not given in full), the Selectivity in experiment [1] was 6.4. Also, in experiment [2], the Ki stood at 17 nM.

Turning to `O=C1/C(=C/c2ccc(-c3ccccc3)cc2)C[C@@]2(O)C3Cc4ccc(O)c5c4C2(CCN3CC2CC2)C1O5` (stereo not given in full), the Selectivity in experiment [1] was 0.6. In experiment [2], this compound came in with a Ki of 75 nM.

For the compound `O=C1/C(=C\c2ccc(-c3ccccc3)cc2)C[C@@]2(O)C3Cc4ccc(O)c5c4C2(CCN3CC2CC2)C1O5` (stereo not given in full), the Selectivity in experiment [1] stood at 4.2. Further, affinity in experiment [2] was put at a Ki of 47 nM.

Take `O=C1/C(=C\c2ccc3ccccc3c2)C[C@@]2(O)C3Cc4ccc(O)c5c4C2(CCN3CC2CC2)C1O5` (stereo not given in full): the Selectivity in experiment [1] was determined as 3. The Ki in experiment [2] was determined as 16 nM.

In the case of `O=C1/C(=C/c2ccc3ccccc3c2)C[C@@]2(O)C3Cc4ccc(O)c5c4C2(CCN3CC2CC2)C1O5` (stereo not given in full), the Selectivity in experiment [1] came to 0.6. The compound further registered a Ki in experiment [2] of 39 nM.

For `O=C1/C(=C\c2cccc3ccccc23)C[C@@]2(O)C3Cc4ccc(O)c5c4C2(CCN3CC2CC2)C1O5` (stereo not given in full), the Selectivity in experiment [1] came out at 15. Moreover, affinity in experiment [2] was put at a Ki of 0.7 nM.

In the case of `O=C1/C(=C/c2cccc3ccccc23)C[C@@]2(O)C3Cc4ccc(O)c5c4C2(CCN3CC2CC2)C1O5` (stereo not given in full), the Selectivity in experiment [1] worked out at 7.5. Further, the Ki in experiment [2] turned out to be 4.6 nM.

On to `O=C1/C(=C/c2ccccc2)C[C@@]2(O)[C@H]3Cc4ccc(O)c5c4[C@@]2(CCN3CC2CC2)[C@H]1O5` [BNTX], for which the Selectivity in experiment [1] is 4. Further, the Ki in experiment [2] was found to be 6.2 nM.

For the compound `O=C1/C(=C\c2ccccc2)C[C@@]2(O)[C@H]3Cc4ccc(O)c5c4[C@@]2(CCN3CC2CC2)[C@H]1O5`, the Selectivity in experiment [1] came to 8.6. In experiment [2], this compound had a Ki of 3.7 nM.
